According to patent US9567319B2, “Compound having higher inhibitory activity on protein kinase G and preparation method thereof” (Jenkem Technology Co., Ltd., (Tianjin), priority 2014, dated 2017):
Values after ≈ are worked out from the molar mass of the structure shown. “Also recorded” adds a separate entry of the source.

Columns and labels:
[1] = Test of water solubility of the compounds; conditions: for Volume of added water: about 0.1 g sample, room temperature, water added until dissolved; for solubility: water, thermodynamic from solid
Protocol: At room temperature, about 0.1 g of each sample to be tested (solid materials should be ground as powder) was added to a 10 mL cylinder with a ground glass stopper. Water was gradually added. After each addition of 0.5 mL water, the resulting solution was stirred for 10 min for mixing, and was then visually examined for the presence of any undissolved sample. If there still exists undissolved sample or undissolved portions of the sample after 10 mL water was added, the test would be continued in a 100 mL cylinder.

[2] = test system: hyperalgesia induced by Freund's complete adjuvant (CFA) in rats; experiment: Therapeutic effect on CFA induced hyperalgesia in rats (overall conclusion of Von Frey and weight bearing tests); assay type: in vivo, SD rats; conditions: for anti-hyperalgesia effect at high dose: high dose i.v.: JK-02H 20 mg/kg, 46 and JK-02A 40 mg/kg; for anti-hyperalgesia effect at high dose / anti-hyperalgesia effect at low dose: compared with vehicle; for anti-hyperalgesia effect at low dose: low dose i.v.: JK-02H 5 mg/kg, 46 and JK-02A 10 mg/kg
Protocol: . A repeat efficacy study was carried out on the same batch of animals with a single-dose treatment followed by a washing-out period. The 14 days in life studies included two stages: a single low dose treatment assessment on the 7th day and then a single high dose treatment test on the 14th day after CFA injection.
On the 7th day after CFA injection, the rats were randomly assigned to respective groups using a computer generated randomization procedure based on the body weight and the baseline values of Von Frey and weight bearing test. Animals received corresponding single dose treatments (vehicle and 3 test articles) on the 7th and 14th days after CFA injection, respectively, and the effect of the test compounds were evaluated. Hyperalgesia of all the study animals was assessed following a single low dose treatment with the test articles on day 7, while a single high dose effect of the test article was evaluated on day 14.
The mechanical hyperalgesia and weight bearing were measured on day 7 and day 14 after CFA injection, followed by administration of control or test articles. Von Frey filaments and weight bearing were measured on all the study animals at three time points on day 7, and four time points on day 14. An extra time point assessment was conducted on day 14, considering the strong analgesic effect of the test articles at a higher dose noticed during the test at the 3th time point.
The effects of compounds 46, JK-02A and JK-02H on CFA induced hyperalgesia in rats were assessed with Von Frey and weight bearing tests following single injection.

Volume of added water [1] [mL] | solubility [1] [µg/mL] | water solubility, times higher than that of compound 46 ([1]; relative to compound 46 (parent compound)) | SMILES | anti-hyperalgesia effect at high dose [2] | anti-hyperalgesia effect at low dose [2] | therapeutic effect when the test time was prolonged to 5 h ([2]; high dose (20 mg/kg), 5 h post treatment) | anti-hyperalgesia effect at high dose ([2]; hydrochloride) | anti-hyperalgesia effect at low dose ([2]; hydrochloride)
71.5 | 1400 (≈ 2560 µM) | – | CCCOc1ccc(F)c(F)c1C(=O)c1ccc(C(=O)N[C@@H]2CNC[C@H]2NC(=O)c2ccc3cn[nH]c3c2)cc1 [JK-02A] | showed anti-hyperalgesia effects | not significant | – | – | –
13.5 | 7400 | about 5 times | Cl.O=C(N[C@@H]1CNC[C@H]1NC(=O)c1ccc2cn[nH]c2c1)c1ccc(C(=O)c2c(OCCOCCO)ccc(F)c2F)cc1 [JK-02H, (3R,4R)-3-{4-[2,3-difluoro-6-(5-hydroxy-3-oxapentan-1-oxy)]benzoyl}benzamido-4-(1H-indazole-6-carboxamido)pyrrolidine hydrochloride] | – | – | very remarkable therapeutic effect | excellent anti-hyperalgesia effect; also recorded: significant anti-hyperalgesia effects | excellent anti-hyperalgesia effect; also recorded: significant anti-hyperalgesia effects
66.5 | 1500 (≈ 2750 µM) | – | CCCOc1ccc(O)c(F)c1C(=O)c1ccc(C(=O)N[C@@H]2CNC[C@H]2NC(=O)c2ccc3cn[nH]c3c2)cc1 [compound 46] | anti-hyperalgesia effect; also recorded: showed anti-hyperalgesia effects | barely showed any anti-hyperalgesia effect; also recorded: not significant | – | – | –
